These results are taken from US10934283B2, “COMT inhibiting methods and compositions” (LIEBER INSTITUTE FOR BRAIN DEVELOPMENT, priority 2015, dated 2021).

Where a name gives a salt, the structure may show the parent alone.

The target of the assay is T1, catechol-O-methyltransferase (COMT) (Homo sapiens, UniProt P21964).
T1 construct: M51A variant) was expressed in HEK 293F cells
T1 sequence (P21964 52-271 limits assumed): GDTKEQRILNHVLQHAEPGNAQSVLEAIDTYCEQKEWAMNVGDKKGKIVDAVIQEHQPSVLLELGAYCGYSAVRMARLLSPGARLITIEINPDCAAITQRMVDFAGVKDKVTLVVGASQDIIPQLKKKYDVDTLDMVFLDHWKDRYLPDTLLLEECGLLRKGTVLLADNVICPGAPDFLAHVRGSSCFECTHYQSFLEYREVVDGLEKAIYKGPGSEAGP
Nature of the assay: COMT inhibition assay (HTRF, production of SAH from SAM). Format: biochemical. The following applies: table does not say MB-COMT or S-COMT. Here is the method:
The ability of compounds to inhibit the activity of catechol-O-methyltransferase (COMT) was determined by a homogenous time-resolved fluorescent (HTRF) assay (Lina et al, 2012; kit from CisBio, Codolet, France). This assay measures the production of S-adenosyl homocysteine (SAH) from the methyl donor S-adenosyl methionine. Recombinant human membrane bound COMT (MB-COMT; M51A variant) was expressed in HEK 293F cells using 293Fectin (Life Technologies, Gent, Belgium) and membranes prepared. The membranes were re-suspended in buffer (20 mM Tris/HCl pH 7; 10 mM glycerol; 2 mM MgCl2; 10 mM NaCl), aliquoted and stored at −80° C. Recombinant human soluble COMT(S-COMT), Val158 variant and a hexa-His tag on the N-terminus, was purified using Ni-NTA chromatography, the His tag removed and stored in buffer as above.
For the human MB-COMT assay, membranes (62 ng/well) were incubated with SAM (20 μM final, CisBio) and dopamine (1.5 μM final; Sigma H8502, Diegem, Belgium) in the presence or absence of varying concentrations (typically 10 concentrations ranging from 10 ? M to 0.1 nM) of compound for 40 min at 37° C. in 384-well microtiter plates (10 ? l per well final volume). The reaction was terminated by the addition of acylation buffer and the amount of SAH produced determined according to manufacturer's instructions. Specific inhibition as that inhibited by a high concentration of tolcapone and all experiments were validated using a control curve to tolcapone.
The human S-COMT assay was performed as above except that 0.15 ng enzyme/well was incubated with SAM ([…]) and dopamine (100 μM final) for 15 min at 37° C. and SAH production determined.
HTRF readings were performed using a Perkin Elmer Envision and results expressed as concentration of SAH produced using a standard curve. Results were analyzed using non-linear regression to the 4-parameter logistic equation and pIC50 (−log 10 concentration of drug which inhibits enzyme activity/SAH production by 50%) determined.
For orientation: In TR-FRET formats the signal depends on donor and acceptor labels being close together.
Consider `Cc1ccc(C)c(CN2CCn3cc(O)c(=O)cc3C2)c1` [Example 28, 2-(2,5-dimethylbenzyl)-7-hydroxy-1,2,3,4-tetrahydro-8H-pyrido[1,2-a]pyrazin-8-one], for which the “Activity range (pIC50)” value is reported as “+++ (three plus signs (+++) is associated with a pIC50 of above about 7)”. Consider `O=c1c(O)cn2c(c1Cl)CN(Cc1ccccc1Cl)CC2` [Example 137, 9-chloro-2-[(2-chlorophenyl)methyl]-7-hydroxy-3,4-dihydro-1H-pyrido[1,2-a]pyrazin-8-one], for which the “Activity range (pIC50)” value is “+++ (three plus signs (+++) is associated with a pIC50 of above about 7)”.

As for `CCc1ccc(CN2CCn3cc(O)c(=O)cc3C2)cc1` [Example 13, 2-(4-ethylbenzyl)-7-hydroxy-1,2,3,4-tetrahydro-8H-pyrido[1,2-a]pyrazin-8-one], the “Activity range (pIC50)” value is on record as “+++ (three plus signs (+++) is associated with a pIC50 of above about 7)”.

Consider `Cc1cccc(CN2CCn3cc(O)c(=O)cc3C2)c1C` [Example 37, 2-(2,3-dimethylbenzyl)-7-hydroxy-1,2,3,4-tetrahydro-8H-pyrido[1,2-a]pyrazin-8-one], for which the “Activity range (pIC50)” value is on record as “+++ (three plus signs (+++) is associated with a pIC50 of above about 7)”. The entry for `O=c1cc2n(cc1O)CCN(CCn1nnc3ccccc31)C2` [Example 4, 2-[2-(benzotriazol-1-yl)ethyl]-7-hydroxy-3,4-dihydro-1H-pyrido[1,2-a]pyrazin-8-one] is “+ (a single plus (+) is associated with a pIC50 of from about 4.5 to 6)”; for `N#Cc1ccccc1CN1CCn2cc(O)c(=O)cc2C1` [Example 17, 2-[(7-hydroxy-8-oxo-1,3,4,8-tetrahydro-2H-pyrido[1,2-a]pyrazin-2-yl)methyl]benzonitrile] it is “++ (two plus signs (++) is associated with a pIC50 of from about 6 to 7)”. As for `Cc1cccc(C)c1CN1CCn2cc(O)c(=O)cc2C1c1ccc(F)cc1` (centres unmarked) [Example 124, 2-(2,6-dimethylbenzyl)-1-(4-fluorophenyl)-7-hydroxy-1,2,3,4-tetrahydro-8H-pyrido[1,2-a]pyrazin-8-one], the “Activity range (pIC50)” value was “+++ (three plus signs (+++) is associated with a pIC50 of above about 7)”.

For the compound `O=c1cc2n(cc1O)CCN(CC1CCCCCCC1)C2` [Example 26, 2-(cyclooctylmethyl)-7-hydroxy-1,2,3,4-tetrahydro-8H-pyrido[1,2-a]pyrazin-8-one], the “Activity range (pIC50)” value is “++ (two plus signs (++) is associated with a pIC50 of from about 6 to 7)”.

Take `O=c1cc2n(cc1O)CCN(C1CCc3ccccc31)C2` (centres unmarked) [Example 84, 2-(2,3-dihydro-1H-inden-1-yl)-7-hydroxy-1,2,3,4-tetrahydro-8H-pyrido[1,2-a]pyrazin-8-one]: the “Activity range (pIC50)” value was “++ (two plus signs (++) is associated with a pIC50 of from about 6 to 7)”. The entry for `COc1ccc2c(c1)C(N1CCn3cc(O)c(=O)cc3C1)CCC2` (centres unmarked) [Example 91, 7-hydroxy-2-(7-methoxy-1,2,3,4-tetrahydronaphthalen-1-yl)-1,2,3,4-tetrahydro-8H-pyrido[1,2-a]pyrazin-8-one] is “+++ (three plus signs (+++) is associated with a pIC50 of above about 7)”; for `O=c1cc2n(cc1O)CCN(Cc1ccc(C3CC3)cc1Cl)C2` [Example 64, 2-[(2-chloro-4-cyclopropyl-phenyl)methyl]-7-hydroxy-3,4-dihydro-1H-pyrido[1,2-a]pyrazin-8-one hydrochloride] it is “+++ (three plus signs (+++) is associated with a pIC50 of above about 7)”; for `O=c1cc2n(cc1O)CCN(C(c1ccccc1)C1CCCC1)C2` (centres unmarked) [Example 82, 2-[cyclopentyl(phenyl)methyl]-7-hydroxy-1,2,3,4-tetrahydro-8H-pyrido[1,2-a]pyrazin-8-one] it is “+++ (three plus signs (+++) is associated with a pIC50 of above about 7)”. For `CC(c1ccccc1OCc1ccccc1)N1CCn2cc(O)c(=O)cc2C1` (centres unmarked) [Example 77, 2-{1-[2-(benzyloxy)phenyl]ethyl}-7-hydroxy-1,2,3,4-tetrahydro-8H-pyrido[1,2-a]pyrazin-8-one] the value was “+++ (three plus signs (+++) is associated with a pIC50 of above about 7)”; for `CC(c1cc(F)ccc1F)N1CCn2cc(O)c(=O)cc2C1` (centres unmarked) [Example 97, 2-[1-(2,5-difluorophenyl)ethyl]-7-hydroxy-1,2,3,4-tetrahydro-8H-pyrido[1,2-a]pyrazin-8-one], “+++ (three plus signs (+++) is associated with a pIC50 of above about 7)”; for `O=c1cc2n(cc1O)CCN(c1nc3ccccc3s1)C2` [Example 108, 2-(1,3-benzothiazol-2-yl)-7-hydroxy-3,4-dihydro-1H-pyrido[1,2-a]pyrazin-8-one], “++ (two plus signs (++) is associated with a pIC50 of from about 6 to 7)”.

In the case of `CCc1ccc(CN2CCn3cc(O)c(=O)cc3[C@H]2c2ccccc2)cc1` (single isomer, unassigned) [Example 118], the “Activity range (pIC50)” value is listed as “+++ (three plus signs (+++) is associated with a pIC50 of above about 7)”. The entry for `CCc1ccc(CN2CCn3cc(O)c(=O)c(C4CC4)c3C2)cc1` [Example 141, 9-cyclopropyl-2-(4-ethylbenzyl)-7-hydroxy-1,2,3,4-tetrahydro-8H-pyrido[1,2-a]pyrazin-8-one] is “++ (two plus signs (++) is associated with a pIC50 of from about 6 to 7)”; for `CC(c1cccc(F)c1)N1CCn2cc(O)c(=O)cc2C1` (centres unmarked) [Example 81, 2-[1-(3-fluorophenyl)ethyl]-7-hydroxy-1,2,3,4-tetrahydro-8H-pyrido[1,2-a]pyrazin-8-one] it is “++ (two plus signs (++) is associated with a pIC50 of from about 6 to 7)”; for `O=c1cc2n(cc1O)CCN(Cc1c(F)cccc1Cl)C2` [Example 59, 2-[(2-chloro-6-fluoro-phenyl)methyl]-7-hydroxy-3,4-dihydro-1H-pyrido[1,2-a]pyrazin-8-one] it is “+++ (three plus signs (+++) is associated with a pIC50 of above about 7)”. `O=c1cc2n(cc1O)CCN(Cc1ccccc1F)C2` [Example 39, 2-(2-fluorobenzyl)-7-hydroxy-1,2,3,4-tetrahydro-8H-pyrido[1,2-a]pyrazin-8-one]: the “Activity range (pIC50)” value was “+++ (three plus signs (+++) is associated with a pIC50 of above about 7)”. For `CC(c1cccc(C#N)c1)N1CCn2cc(O)c(=O)cc2C1` (centres unmarked) [Example 95, 3-[1-(7-hydroxy-8-oxo-1,3,4,8-tetrahydro-2H-pyrido[1,2-a]pyrazin-2-yl)ethyl]benzonitrile] the value was “++ (two plus signs (++) is associated with a pIC50 of from about 6 to 7)”; for `CCc1ccc(CN2CCn3cc(O)c(=O)cc3C2)cc1[N+](=O)[O-]` [Example 18, 2-(4-ethyl-3-nitrobenzyl)-7-hydroxy-1,2,3,4-tetrahydro-8H-pyrido[1,2-a]pyrazin-8-one], “+++ (three plus signs (+++) is associated with a pIC50 of above about 7)”. As to `O=c1cc2n(cc1O)CCN(Cc1c[nH]nc1-c1cccs1)C2` [Example 43, 7-hydroxy-2-{[3-(thiophen-2-yl)-1H-pyrazol-4-yl]methyl}-1,2,3,4-tetrahydro-8H-pyrido[1,2-a]pyrazin-8-one], the “Activity range (pIC50)” value is “++ (two plus signs (++) is associated with a pIC50 of from about 6 to 7)”.
